Measured values taken from article PMC7253382, “Trypanocidal and leishmanicidal activity of six limonoids” (Journal of Natural Medicines, 2020).
In brackets after ≈: the same amount, converted by molar mass. Where two headings read alike, the source gives them in different places.

Columns and labels:
[1] = tested on: promastigotes of Leishmania major (strain MHOM/IL/81/Friedlin); assay: In vitro toxicity assay (resazurin), L. major promastigotes; assay type: cell-based; conditions: 72 h; for GI50: read-out: L. major GI50; for MIC: read-out: L. major MIC
Description: (§1) Bloodstream forms of Trypanosoma brucei (clone 427-221a) and human myeloid leukaemia HL-60 cells were maintained in Baltz medium supplemented with 16.7% heat-inactivated bovine serum in a humidified atmosphere containing 5% CO2 at 37 °C. Promastigotes of Leishmania major (strain MHOM/IL/81/Friedlin [16]) were cultured in Schneider’s insect medium supplemented with 10% heat-inactivated foetal bovine serum in a humidified atmosphere containing 5% CO2 at 27 °C.
(§2) Toxicity assays were carried out as previously described with some modifications. In brief, cells were seeded in 96-well plates in a final volume of 200 μL of appropriate medium containing various concentrations of test compounds (tenfold dilution from 100 µM to 1 nM) and 1% DMSO. Wells just containing medium and 1% DMSO served as controls. The initial cell densities were 1 × 10^4/mL for T. brucei bloodstream forms, 2.5 × 10^5/mL for L. major promastigotes, and 5 × 10^4/mL for HL-60 cells. After 24 h incubation, 20 µL of a 0.5 mM resazurin solution prepared in PBS was added and the cells were incubated for a further 48 h. Thereafter, the absorbance of wells was read on a BioTek ELx808 microplate reader using a test wavelength of 570 nm and a reference wavelength of 630 nm. The 50% growth inhibition (GI50) value, i.e., the concentration of a compound necessary to reduce the growth rate of cells by 50% compared to the control, was determined by linear interpolation. The minimum inhibitory concentration (MIC) values, i.e. the concentration of a compound at which all trypanosomes and human cells were killed, was determined microscopically.

[2] = tested on: intracellular L. major amastigotes in J774 macrophages; assay: Intra-macrophages amastigote assay; assay type: cell-based, Leishmania major; conditions: for Killing of intracellular amastigotes: 72 h
Description: The intra-macrophages amastigote assay was performed as previously described with some modification. In brief, 1 mL of J774 cells (7 × 10^4) suspended in RPMI supplemented with 10% foetal bovine serum were pipetted into wells of a 24 well plate containing sterile glass coverslips. Subsequently, cells were incubated overnight at 37 °C and 5% CO2 in a humidified incubator. The next day, metacyclic L. major promastigotes (MOI 20:1) were added and the plates incubated for 24 h at 34 °C and 5% CO2 in a humidified incubator. After 24 h incubation, cells were washed 4 times with PBS to remove parasites that had not invaded any macrophage. Then, cells were incubated with compound 1 at the following concentrations: 10, 2.5, 1.25, 0.625 and 0.1 µM. Amphotericin B (0.1 µM) was used as a positive control and no drug treatment as a negative control. After 72 h of drug incubation, cells were gently washed 4 times with PBS and fixed with 4% paraformaldehyde for 30 min. Thereafter, cells were washed once with water and stained with Giemsa for 40 min. Cells on coverslips were then destained using the acetone-xylene protocol as follows: first, pure acetone; second, pure acetone; third, acetone/xylene 9:1; forth, acetone/xylene 7:3; fifth, acetone/xylene 3:7; sixth, pure xylene. Finally, coverslips were mounted on slides with Entellan new mounting medium. Infection index (parasites/cell) were determined by counting approximately 300 cells per coverslips using an Olympus BX50 microscope with a 100 × N.A. 1.35 oil immersion objective.
Fig. 2 Effect of compound 1 on intracellular L. major amastigotes. After infection of J774 macrophages with metacyclic promastigotes of L. major, cells were treated with compound 1 or amphotericin B (AM) or with DMSO alone (DMSO) 24 h post infection. After 72 h incubation, coverslips with cells were washed with PBS, fixed with paraformaldehyde and stained with Giemsa. Subsequently, cells were destained and coverslips mounted, and the infection index determined. Mean values ± SD of three independent experiments run in triplicate are shown

[3] = In vitro toxicity assay (resazurin), HL-60 cells; assay type: cell-based, human; conditions: human
Description: as §1, §2

[4] = tested on: human myeloid leukaemia HL-60 cells; assay: In vitro toxicity assay (resazurin), HL-60 cells; assay type: cell-based; conditions: 72 h; for GI50: 50% growth inhibition, resazurin
Description: as §1, §2

[5] = tested on: bloodstream forms of Trypanosoma brucei (clone 427-221a); assay: In vitro toxicity assay (resazurin), T. brucei bloodstream forms; assay type: cell-based; conditions: for GI50: read-out: T. brucei GI50; for MIC: read-out: T. brucei MIC
Description: as §1, §2

[6] = tested on: immortalised human embryonic kidney cell line HEK239T; set-up: method as in PMID 28917086; conditions: cited from earlier work
[7] = tested on: bloodstream forms of T. brucei rhodesiense; set-up: method as in PMID 17253841; conditions: cited from earlier work
[8] = tested on: Axenic grown amastigotes of L. donovani; set-up: method as in PMID 17253841; conditions: cited from earlier work
[9] = Leishmania major, promastigotes, 50% growth inhibition, resazurin
[10] = Leishmania major, promastigotes, determined microscopically
[11] = HL-60 cells (human myeloid leukaemia), cytotoxicity, 50% growth inhibition, resazurin, 72 h, read-out: HL-60 cells GI50
[12] = cytotoxicity, determined microscopically
[13] = Trypanosoma brucei, 72 h, bloodstream forms, 50% growth inhibition, resazurin, 72 h
[14] = Trypanosoma brucei, bloodstream forms, concentration at which all cells were killed, determined microscopically, 72 h
[15] = cytotoxicity, 50% growth inhibition, resazurin, 72 h, read-out: HL-60 cells GI50

Compound	GI50 [1, 9]	MIC [1, 10]	GI50 at 72 h [3, 11]	HL-60 cells MIC [4, 12]	GI50 [5, 13]	MIC [5, 14]	GI50 ([1]; Leishmania major)	MIC ([1]; Leishmania major)	GI50 at 72 h [3, 15]	GI50 ([5]; Trypanosoma brucei, 72 h)	MIC ([5]; Trypanosoma brucei, 72 h)	other results
C[C@@H]1[C@H](O)[C@@H](C)/C=C/C=C/C=C/C=C/C=C/C=C/C=C/[C@H](O[C@@H]2O[C@H](C)[C@@H](O)[C@H](N)[C@@H]2O)C[C@@H]2O[C@](O)(C[C@@H](O)C[C@@H](O)[C@H](O)CC[C@@H](O)C[C@@H](O)CC(=O)O[C@H]1C)C[C@H](O)[C@H]2C(=O)O [Amphotericin B, reference compound]	0.036 ± 0.001 µM	0.1 µM (≈ 0.0924 µg/mL)										Killing of intracellular amastigotes ([2]; at 0.1 μM, positive control): completely destroy; GI50 at 72 h ([3]; HL-60 cells GI50): 50.7 ± 9.3 µM; HL-60 cells MIC ([4]; human): > 100 µM
CC1(C)C(=O)C=C[C@]2(C)C3C(=O)C[C@@]4(C)[C@H](c5ccoc5)OC(=O)[C@H]5O[C@]54[C@]3(C)CC[C@@H]12 (stereo partly shown) [Compound 1, kotschyienone A]	2 to 3 µM	10 µM (≈ 4.39 µg/mL)	31.5 to 46.2 µM	100 µM	2 to 3 µM	10 µM (≈ 4.39 µg/mL)						GI50 ([1]; promastigotes, 50% growth inhibition, resazurin): 2.86 ± 0.89 µM; GI50 ([2]; Leishmania major, J774, same value as 1.51 μM in mass units): 0.66 µg/mL (≈ 1.51 µM); Killing of intracellular amastigotes ([2]; at 10 μM): killed completely; ED50 (50% effective dose), reduction of parasite burden of infected macrophages ([2]; intracellular amastigotes in J774 macrophages, 72 h drug incubation, infection index): 1.51 µM; GI50 ([4]; cytotoxicity): 31.5 ± 3.7 µM; GI50 ([5]; Trypanosoma brucei, bloodstream forms, same value as 2.48 μM in mass units): 1.09 µg/mL; GI50 ([5]; bloodstream forms, 50% growth inhibition, resazurin, 72 h): 2.48 ± 0.12 µM; cytotoxicity for HEK239T [6]: > 200 µg/mL
CC1(C)C(=O)C=C[C@]2(C)C3C(=O)C[C@@]4(C)[C@H](c5ccoc5)OC(=O)[C@H]5O[C@]54[C@]3(C)[C@H](O)C[C@@H]12 (stereo partly shown) [Compound 2, kotschyienone B]	14.9 ± 5.9 µM	100 µM (≈ 45.5 µg/mL)	> 100 µM	> 100 µM	14.2 ± 2.9 µM	100 µM (≈ 45.5 µg/mL)						
CC1(C)C(=O)C=C[C@]2(C)C3CC[C@@]4(C)[C@H](c5ccoc5)OC(=O)[C@H]5O[C@]54[C@]3(C)[C@H](O)C[C@@H]12 (stereo partly shown) [Compound 3, 7-deacetylgedunin]				100 µM			11.6 ± 1.6 µM	100 µM (≈ 44.1 µg/mL)	31.5 to 46.2 µM	14.5 ± 3.2 µM	100 µM (≈ 44.1 µg/mL)	GI50 [7]: 3.4 µM; GI50 ([4]; cytotoxicity): 46.2 ± 6.7 µM; GI50 [8]: ~1 µM
CC1(C)C(=O)C=C[C@]2(C)C3CC[C@@]4(C)[C@H](c5ccoc5)OC(=O)[C@H]5O[C@]54[C@]3(C)C(=O)C[C@@H]12 (stereo partly shown) [Compound 4, 7-deacetyl-7-oxogedunin]				> 100 µM			7.63 ± 2.78 µM	> 100 µM	> 100 µM	3.18 ± 0.48 µM	> 100 µM	GI50 [7]: 3.4 µM; GI50 [8]: ~1 µM
C=C1[C@@H]([C@@]2(C)C=CC(=O)C(C)(C)[C@@H]2CC(=O)OC)CC[C@@]2(C)[C@H](c3ccoc3)OC(=O)[C@H]3O[C@]132 [Compound 5, andirobin]	> 100 µM	> 100 µM	> 100 µM	> 100 µM	11.5 ± 6.3 µM	> 100 µM						
C=C1[C@@H]2CC[C@@]3(C)[C@H](c4ccoc4)OC(=O)C[C@]13O[C@H]1CC(=O)C(C)(C)[C@H](CC(=O)OC)[C@]12C [Compound 6, methyl angolensate]				> 100 µM			> 100 µM	> 100 µM	> 100 µM	6.04 ± 2.25 µM	> 100 µM	
Cc1ccc(C(=O)Nc2ccc(S(=O)(=O)O)c3cc(S(=O)(=O)O)cc(S(=O)(=O)O)c23)cc1NC(=O)c1cccc(NC(=O)Nc2cccc(C(=O)Nc3cc(C(=O)Nc4ccc(S(=O)(=O)O)c5cc(S(=O)(=O)O)cc(S(=O)(=O)O)c45)ccc3C)c2)c1 [Suramin, reference compound]					0.042 ± 0.004 µM	1 µM (≈ 1.3 µg/mL)						GI50 at 72 h ([3]; HL-60 cells GI50): > 100 µM; HL-60 cells MIC ([4]; human): > 100 µM
